Data: US20260209215A1, “GLYCINE DERIVATIVES WITH P2X4 RECEPTOR-BLOCKING ACTIVITY AS DIAGNOSTICS AND FOR THE TREATMENT OF PAIN, INFLAMMATION, CANCER, AND OTHER P2X4 RECEPTOR-RELATED DISEASES” (RHEINISCHE-FRIEDRICH-WILHELMS-UNIVERSITÄT BONN, priority 2022, published 2026)

Biological target: T1, P2X4 receptor (Homo sapiens, UniProt Q99571)
T1 construct: expressed in transfected cells; host or cells: 1321N1 astrocytoma cells, retroviral vector pQCXIN, G418 selection, monoclones
T1 sequence (Q99571 1-388): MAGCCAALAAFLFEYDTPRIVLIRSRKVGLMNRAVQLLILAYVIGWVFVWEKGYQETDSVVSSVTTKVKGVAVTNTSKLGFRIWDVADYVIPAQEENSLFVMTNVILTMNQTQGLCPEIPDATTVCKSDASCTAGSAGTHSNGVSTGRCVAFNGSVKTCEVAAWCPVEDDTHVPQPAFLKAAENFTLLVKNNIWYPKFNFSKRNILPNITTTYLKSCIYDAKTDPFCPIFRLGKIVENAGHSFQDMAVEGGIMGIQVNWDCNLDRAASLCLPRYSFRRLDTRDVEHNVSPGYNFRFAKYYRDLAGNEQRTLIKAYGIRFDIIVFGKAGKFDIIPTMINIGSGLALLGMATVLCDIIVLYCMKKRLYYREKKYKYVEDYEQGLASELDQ
Test: Measurement of Ca2+ influx in transfected 1321N1 astrocytoma cells (P2X4 inhibitory potency)
Type: cell-based
Details: agonist-mediated Ca2+ influx, FLUO-4, 1321N1 astrocytoma cells; antagonists added 30 min before agonist
Summary of the method: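 Stable 1321N1 astrocytoma cells expressing human P2X4, loaded with FLUO-4 AM (2.4 μM) in HBSS/HEPES pH 7.3 for 1 h at 23 °C. Antagonists added 30 min before agonist; fluorescence at 520 nm recorded for 30 s. Compounds tested at 7–8 concentrations spanning three log units.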

| Compound | IC50 |
| --- | --- |
| CCc1nsc(-c2ccc(F)c(NCC(=O)N3CCc4c(N5CC(O)C5)cccc43)c2)n1 [Example 56, 2-((5-(3-ethyl-1,2,4-thiadiazol-5-yl)-2-fluorophenyl)amino)-1-(4-(3-hydroxyazetidin-1-yl)indolin-1-yl)ethan-1-one] | 0.0001 to 0.019 µM |
| Cc1noc(-c2ccc(C)c(NCC(=O)N3CCc4c(OCCC(C)(C)O)cccc43)c2)n1 [Example 47, 1-(4-(3-hydroxy-3-methylbutoxy)indolin-1-yl)-2-((2-methyl-5-(3-methyl-1,2,4-oxadiazol-5-yl)phenyl)amino)ethan-1-one] | 0.02 to 0.039 µM |
| O=C(CNc1cc(-c2nc(Cl)ns2)ccc1Cl)N1CCc2c(O)cccc21 [Example 39, 2-((2-chloro-5-(3-chloro-1,2,4-thiadiazol-5-yl)phenyl)amino)-1-(4-hydroxyindolin-1-yl) ethan-1-one] | 0.02 to 0.039 µM |
| Cc1nsc(-c2ccc(C)c(NCC(=O)N3CCc4c(N)cccc43)c2)n1 [Example 74, 1-(4-aminoindolin-1-yl)-2-((2-methyl-5-(3-methyl-1,2,4-thiadiazol-5-yl)phenyl)amino)ethan-1-one] | 0.02 to 0.039 µM |
| COc1cccc2c1CCN2C(=O)CNc1cc(-c2nc(C)ns2)ccc1F [Example 34, 2-((2-fluoro-5-(3-methyl-1,2,4-thiadiazol-5-yl)phenyl)amino)-1-(4-methoxyindolin-1-yl)ethan-1-one] | 0.02 to 0.039 µM |
| Cc1nsc(-c2ccc(C)c(NCC(=O)N3CCc4c(N5CCC(O)C5)cccc43)c2)n1 (stereo not drawn) [Example 68, 1-(4-(3-hydroxypyrrolidin-1-yl)indolin-1-yl)-2-((2-methyl-5-(3-methyl-1,2,4-thiadiazol-5-yl)phenyl)amino)ethan-1-one] | 0.02 to 0.039 µM |
| COC(=O)c1cccc2c1CCN2C(=O)CNc1cc(-c2ccc(C)cn2)ccc1OC [Example 119, methyl 1-((2-methoxy-5-(5-methylpyridin-2-yl)phenyl)glycyl) indoline-4-carboxylate] | 0.07 to 0.099 µM |
| Cc1nsc(-c2ccc(C)c(NCC(=O)N3CCc4c(OCCCO)cccc43)c2)n1 [Example 16, 1-(4-(3-hydroxypropoxy)indolin-1-yl)-2-((2-methyl-5-(3-methyl-1,2,4-thiadiazol-5-yl)phenyl)amino) ethan-1-one] | 0.0001 to 0.019 µM |
| Cc1nsc(-c2ccc(C)c(NCC(=O)N3CCc4c3cccc4[C@@](C)(O)CO)c2)n1 [Example 64, 1-(4-(1,2-dihydroxypropan-2-yl)indolin-1-yl)-2-((2-methyl-5-(3-methyl-1,2,4-thiadiazol-5-yl)phenyl)amino)ethan-1-one] | 0.0001 to 0.019 µM |
| Cc1ccc(-c2nc(C(F)F)ns2)cc1NCC(=O)N1CCc2c1cccc2C(C)(C)O [Example 40, 2-((5-(3-(difluoromethyl)-1,2,4-thiadiazol-5-yl)-2-methylphenyl)amino)-1-(4-(2-hydroxypropan-2-yl)indolin-1-yl) ethan-1-one] | 0.02 to 0.039 µM |
| Cc1nsc(-c2ccc(C)c(NCC(=O)N3CCc4nc(Cl)ccc43)c2)n1 [Example 10, 1-(5-chloro-2,3-dihydro-1H-pyrrolo[3,2-b]pyridin-1-yl)-2-((2-methyl-5-(3-methyl-1,2,4-thiadiazol-5-yl)phenyl)amino)ethan-1-one] | 0.07 to 0.099 µM |
| Cc1nsc(-c2ccc(C)c(NCC(=O)c3c[nH]c4c(C(C)O)cccc34)c2)n1 (stereo not drawn) [Example 112, 1-(7-(1-hydroxyethyl)-1H-indol-3-yl)-2-((2-methyl-5-(3-methyl-1,2,4-thiadiazol-5-yl)phenyl)amino)ethan-1-one] | 0.0001 to 0.019 µM |
| Cc1nsc(-c2ccc(C)c(NCC(=O)N3CCc4c3cccc4N3C(=O)CC(N)C3=O)c2)n1 (stereo not drawn) [Example 80, 3-amino-1-(1-((2-methyl-5-(3-methyl-1,2,4-thiadiazol-5-yl)phenyl)glycyl)indolin-4-yl) pyrrolidine-2,5-dione] | 0.0001 to 0.019 µM |
| Cc1ccc(-c2nc(C(F)F)ns2)cc1NCC(=O)N1CCc2c1cccc2C(C)(O)CO (stereo not drawn) [Example 61, 2-((5-(3-(difluoromethyl)-1,2,4-thiadiazol-5-yl)-2-methylphenyl)amino)-1-(4-(1,2-dihydroxypropan-2-yl)indolin-1-yl)ethan-1-one] | 0.0001 to 0.019 µM |
| Cc1noc(-c2ccc(C)c(NCC(=O)N3CCc4c(C(N)C(F)(F)F)cccc43)c2)n1 (stereo not drawn) [Example 89, 1-(4-(1-amino-2,2,2-trifluoroethyl)indolin-1-yl)-2-((2-methyl-5-(3-methyl-1,2,4-oxadiazol-5-yl)phenyl)-amino)ethan-1-one] | 0.07 to 0.099 µM |
| CCc1nsc(-c2ccc(C)c(NCC(=O)N3CCc4c(OC(F)(F)C(=O)O)cccc43)c2)n1 [Example 87, 2-((1-((5-(3-ethyl-1,2,4-thiadiazol-5-yl)-2-methyl-phenyl)glycyl)indolin-4-yl)oxy)-2,2-difluoro-acetic acid] | 0.04 to 0.069 µM |
| COc1cc2[nH]cc(C(=O)CNc3cc(-c4nc(C)ns4)cc(F)c3OC)c2cc1F [Example 101, 2-((3-fluoro-2-methoxy-5-(3-methyl-1,2,4-thiadiazol-5-yl)phenyl)amino)-1-(5-fluoro-6-methoxy-1H-indol-3-yl)ethan-1-one] | 0.02 to 0.039 µM |
| COC(=O)C1CN(C(=O)CNc2cc(-c3nc(C)ns3)ccc2C)c2ccccc21 (stereo not drawn) [Example 57, methyl 1-((2-methyl-5-(3-methyl-1,2,4-thiadiazol-5-yl)-phenyl)glycyl)indoline-3-carboxylate] | > 0.1 µM |
| Cc1nsc(-c2ccc(C)c(NCC(=O)N3CCc4c3cccc4-n3ccnc3)c2)n1 [Example 48, 1-(4-(1H-imidazol-1-yl)indolin-1-yl)-2-((2-methyl-5-(3-methyl-1,2,4-thiadiazol-5-yl)phenyl)amino)ethan-1-one] | 0.02 to 0.039 µM |
| Cc1nsc(-c2cc(NCC(=O)N3CCc4c3cc(Br)cc4[C@@](C)(O)CO)c(C)cc2Br)n1 (stereo in doubt) [Example 123, 2-((4-bromo-2-methyl-5-(3-methyl-1,2,4-thiadiazol-5-yl)phenyl)amino)-1-(6-bromo-4-(1,2-dihydroxypropan-2-yl)indolin-1-yl)ethan-1-one] | > 0.1 µM |
| Cc1nsc(-c2ccc(C)c(NCC(=O)N3CCc4c3cccc4C(C)(O)CO)c2)n1 (racemic) [Example 62, 1-(4-(1,2-dihydroxypropan-2-yl)indolin-1-yl)-2-((2-methyl-5-(3-methyl-1,2,4-thiadiazol-5-yl)phenyl)amino)ethan-1-one] | 0.0001 to 0.019 µM |
| CCn1nnc(-c2ccc(OC)c(NCC(=O)N3CCc4c(OC)cccc43)c2)n1 [Example 5, 2-((5-(2-ethyl-2H-tetrazol-5-yl)-2-methoxyphenyl)amino)-1-(4-methoxyindolin-1-yl)ethan-1-one] | 0.02 to 0.039 µM |
| CCc1nsc(-c2ccc(C)c(NCC(=O)N3CCc4c3cccc4-n3ccnc3)c2)n1 [Example 35, 1-(4-(1H-imidazol-1-yl)indolin-1-yl)-2-((5-(3-ethyl-1,2,4-thiadiazol-5-yl)-2-methyl-phenyl)amino)ethan-1-one] | 0.02 to 0.039 µM |
| CCc1nsc(-c2ccc(C)c(NCC(=O)N3CCc4c(OCCOCCO)cccc43)c2)n1 [Example 19, 2-((5-(3-ethyl-1,2,4-thiadiazol-5-yl)-2-methylphenyl)amino)-1-(4-(2-(2-hydroxyethoxy)ethoxy)indolin-1-yl)ethan-1-one] | 0.0001 to 0.019 µM |
| Cc1nsc(-c2ccc(C)c(NCC(=O)N3CCc4c(-c5cc[nH]n5)cccc43)c2)n1 [Example 70, 1-(4-(1H-pyrazol-3-yl)indolin-1-yl)-2-((2-methyl-5-(3-methyl-1,2,4-thiadiazol-5-yl)phenyl)amino)ethan-1-one] | 0.0001 to 0.019 µM |
| Cc1noc(-c2ccc(F)c(NCC(=O)N3CCc4c(C(O)C(F)(F)F)cccc43)c2)n1 (stereo not drawn) [Example 41, 2-((2-fluoro-5-(3-methyl-1,2,4-oxadiazol-5-yl)phenyl)amino)-1-(4-(2,2,2-trifluoro-1-hydroxyethyl)indolin-1-yl)ethan-1-one] | 0.02 to 0.039 µM |
| Cc1ccc(-c2nc(C3CC3)no2)cc1NCC(=O)N1CCc2c(OCC(C)(C)O)cccc21 [Example 50, 2-((5-(3-cyclopropyl-1,2,4-oxadiazol-5-yl)-2-methylphenyl)amino)-1-(4-(2-hydroxy-2-methylpropoxy)-indolin-1-yl)ethan-1-on] | 0.04 to 0.069 µM |
